Converted amounts (≈) assume the structure as drawn.
Key:
[1] = tested on: Staphylococcus aureus ATCC 25923; assay: Broth microdilution, S. aureus ATCC 25923; assay type: cell-based; details: Sa 25923
Description: (§1) The antibacterial activity of the obtained thiosemicarbazides and hydrazide–hydrazones was determined by evaluating their ability to inhibit microbial growth in vitro using the broth microdilution method, according to the guidelines of the European Committee on Antimicrobial Susceptibility Testing (EUCAST). The method involved the preparation of microbial suspensions with a standardized density of 0.5 on the McFarland scale (equivalent to 1.5 × 10^8 colony-forming units/mL for bacteria and […] for fungi). A solution of the test substances was then prepared (initial concentration 1000 µg/mL, diluted in sterile Mueller-Hinton broth for bacteria or Mueller-Hinton with 2% glucose for fungi). The test was carried out in 96-well polystyrene flat-bottom plates (Medlab, Poland) with 100 µL of appropriate sterile microbiological medium in each well. The first wells were filled with 200 µL of the test substance, diluted to the initial concentration, and then double-decreasing dilutions were made under aseptic conditions using an automatic pipette. The final step was the addition of a 10-fold diluted microbial suspension of 2 µL. At the same time, the following controls were included: (a) medium control (100 µL of sterile medium without microorganisms added), (b) microbial viability control, (c) test substance control (dilutions without added micro-organisms), (d) positive control of the drug used in the clinic. The plates thus prepared were incubated for 18 ± 2 h at 35 ± 2 °C under conditions optimal for the growth of the test microorganisms. After incubation, the spectrophotometric absorbance at 570 nm in each well of the plate was read. The aim of this part of the study was to determine two parameters: the minimum inhibitory concentration (MIC) and the minimum bactericidal or fungicidal concentration (MBC/MFC) of the test compound. […] The MBC value was determined by adding 5 µL of the contents of each well of the plate to solid sterile MHA or MHA + 2%glc medium for bacteria and fungi, respectively. The area on the plate where 99.9% inhibition of microbial growth was observed indicated the lethal concentration. In addition, the quotient MBC(MFC)/MIC could be determined to assess the nature of the activity of the test substance. If MBC(MFC)/MIC was <4, the test substance was bactericidal/fungicidal, whereas if MBC(MFC)/MIC was ≥4, it was bacteriostatic/fungistatic. Amoxicillin (Glentham Life Sciences, USA) and nystatin (Glentham Life Sciences, USA) were used as the controls for this assay.
(§2) The test was performed either on bacteria, comprising: Gram-positive (Staphylococcus aureus ATCC 25923, Staphylococcus aureus ATCC 6538, Staphylococcus aureus ATCC 43300 methicillin-resistant MRSA, Staphylococcus epidermidis ATCC 12228, Micrococcus luteus ATCC 10240, Bacillus subtilis ATCC 6633, Bacillus cereus ATCC 10876) and Gram-negative (Escherichia coli ATCC 25922, Pseudomonas aeruginosa ATCC 27853, Proteus mirabilis ATCC 12453, Klebsiella pneumoniae ATCC 13883) or yeast (Candida parapsilosis ATCC 22019, Candida glabrata ATCC 90030, Candida krusei ATCC 14243, Candida glabrata ATCC 15126, Candida tropicalis ATCC 1369, Candida auris CDC B11903, Candida lusitaniae ATCC 3449) reference strains from the American Type Culture Collection (ATCC) or the Centers for Disease Control and Prevention (CDC).

[2] = tested on: Staphylococcus aureus ATCC 6538; assay: Broth microdilution, S. aureus ATCC 6538; assay type: cell-based; details: Sa 6538
Description: as §1, §2

[3] = tested on: Staphylococcus aureus ATCC 43300 methicillin-resistant MRSA; assay: Broth microdilution, S. aureus ATCC 43300 MRSA; assay type: cell-based; details: Sa 43300 MRSA
Description: as §1, §2

[4] = tested on: Staphylococcus epidermidis ATCC 12228; assay: Broth microdilution, S. epidermidis ATCC 12228; assay type: cell-based; details: Se 12228; for MBC/MIC Ratio: <4 bactericidal, ≥4 bacteriostatic
Description: as §1, §2

[5] = tested on: Micrococcus luteus ATCC 10240; assay: Broth microdilution, M. luteus ATCC 10240; assay type: cell-based; details: Ml 10240; for MBC/MIC Ratio: <4 bactericidal, ≥4 bacteriostatic
Description: as §1, §2

[6] = tested on: Bacillus subtilis ATCC 6633; assay: Broth microdilution, B. subtilis ATCC 6633; assay type: cell-based; details: Bs 6633; for MBC/MIC Ratio: <4 bactericidal, ≥4 bacteriostatic
Description: as §1, §2

[7] = tested on: Bacillus cereus ATCC 10876; assay: Broth microdilution, B. cereus ATCC 10876; assay type: cell-based; details: Bc 10876; for MBC/MIC Ratio: <4 bactericidal, ≥4 bacteriostatic
Description: as §1, §2

[8] = tested on: Candida parapsilosis ATCC 22019; assay: Broth microdilution, C. parapsilosis ATCC 22019; assay type: cell-based; details: Cp 22019
Description: as §1, §2

[9] = tested on: Candida glabrata ATCC 90030; assay: Broth microdilution, C. glabrata ATCC 90030; assay type: cell-based; details: Cg 90030
Description: as §1, §2

[10] = tested on: Candida krusei ATCC 14243; assay: Broth microdilution, C. krusei ATCC 14243; assay type: cell-based; details: Ck 14243
Description: as §1, §2

[11] = tested on: Candida glabrata ATCC 15126; assay: Broth microdilution, C. glabrata ATCC 15126; assay type: cell-based; details: Cg 15126
Description: as §1, §2

[12] = tested on: Candida tropicalis ATCC 1369; assay: Broth microdilution, C. tropicalis ATCC 1369; assay type: cell-based; details: Ct 1369; for MFC/MIC Ratio: <4 fungicidal, ≥4 fungistatic
Description: as §1, §2

[13] = tested on: Candida auris CDC B11903; assay: Broth microdilution, C. auris CDC B11903; assay type: cell-based; details: Ca B11903
Description: as §1, §2

[14] = tested on: Candida lusitaniae ATCC 3449; assay: Broth microdilution, C. lusitaniae ATCC 3449; assay type: cell-based; details: Cl 3449
Description: as §1, §2

[15] = tested on: Candida spp.; assay: Broth microdilution, Candida spp.; assay type: cell-based; details: for MBC (range, C. parapsilosis ATCC 22019 and C. tropicalis ATCC 1369) / MIC (range, C. parapsilosis ATCC 22019 and C. tropicalis ATCC 1369): range over both strains and the listed compounds
Description: as §1, §2

Row | MIC [1] | MIC [2] | MIC [3] | MIC [4] | MIC [5] | MIC [6] | MIC [7] | MIC [8] | SMILES | MBC [1] | MBC [2] | MBC [3] | MBC [4] | MBC/MIC Ratio [4] | MBC [5] | MBC/MIC Ratio [5] | MBC [6] | MBC/MIC Ratio [6] | MBC [7] | MBC/MIC Ratio [7] | MFC [8] | other results
1 | 250 µg/mL (≈ 714 µM) | 1000 µg/mL (≈ 2850 µM) | 500 µg/mL (≈ 1430 µM) | 500 µg/mL (≈ 1430 µM) | 250 µg/mL (≈ 714 µM) | 125 µg/mL (≈ 357 µM) | 500 µg/mL (≈ 1430 µM) | 250 µg/mL (≈ 714 µM) | COc1cccc(NC(=S)NNC(=O)c2nc([N+](=O)[O-])cn2C)c1 [Compound 10] | >1000 µg/mL | >1000 µg/mL | >1000 µg/mL | 500 µg/mL (≈ 1430 µM) | 1 | 250 µg/mL (≈ 714 µM) | 1 | 500 µg/mL (≈ 1430 µM) | 4 | 1000 µg/mL (≈ 2850 µM) | 2 | >1000 µg/mL | MIC [9]: >1000 µg/mL; MIC [10]: >1000 µg/mL; MIC [11]: >1000 µg/mL; MFC [12]: 1000 µg/mL (≈ 2850 µM); MIC [12]: 250 µg/mL (≈ 714 µM); MFC/MIC Ratio [12]: 4; MIC [13]: >1000 µg/mL; MIC [14]: >1000 µg/mL; antifungal activity towards tested Candida strains ([15]; in words): fungistatic activity; MBC (range, C. parapsilosis ATCC 22019 and C. tropicalis ATCC 1369) [15]: 500 to 1000 µg/mL; MIC (range, C. parapsilosis ATCC 22019 and C. tropicalis ATCC 1369) [15]: 62.5 to 1000 µg/mL
2 | 250 µg/mL (≈ 644 µM) | 500 µg/mL (≈ 1290 µM) | 1000 µg/mL (≈ 2580 µM) | 500 µg/mL (≈ 1290 µM) | 250 µg/mL (≈ 644 µM) | 250 µg/mL (≈ 644 µM) | 500 µg/mL (≈ 1290 µM) | 125 µg/mL (≈ 322 µM) | Cn1cc([N+](=O)[O-])nc1C(=O)NNC(=S)Nc1ccccc1C(F)(F)F [Compound 12] | >1000 µg/mL | >1000 µg/mL | >1000 µg/mL | 500 µg/mL (≈ 1290 µM) | 1 | 500 µg/mL (≈ 1290 µM) | 2 | 250 µg/mL (≈ 644 µM) | 1 | 500 µg/mL (≈ 1290 µM) | 1 | >1000 µg/mL | MIC [9]: >1000 µg/mL; MIC [10]: >1000 µg/mL; MIC [11]: >1000 µg/mL; MFC [12]: 1000 µg/mL (≈ 2580 µM); MIC [12]: 500 µg/mL (≈ 1290 µM); MFC/MIC Ratio [12]: 2; MIC [13]: >1000 µg/mL; MIC [14]: >1000 µg/mL; MBC (range, C. parapsilosis ATCC 22019 and C. tropicalis ATCC 1369) [15]: 500 to 1000 µg/mL; MIC (range, C. parapsilosis ATCC 22019 and C. tropicalis ATCC 1369) [15]: 62.5 to 1000 µg/mL
3 | – | – | – | – | – | – | – | – | Cn1cc([N+](=O)[O-])nc1C(=O)NN=Cc1cccc(Cl)c1F [Compound 28, N’-[(3-chloro-2-fluorophenyl)methylidene]-1-methyl-4-nitro-1H-imidazole-2-carbohydrazide] | – | – | – | – | – | – | – | – | – | – | – | – | melting point: 252 to 255 °C
4 | – | – | – | – | – | – | – | – | COc1cc(Cl)ccc1C=NNC(=O)c1nc([N+](=O)[O-])cn1C [Compound 29, N’-[(4-chloro-2-methoxyphenyl)methylidene]-1-methyl-4-nitro-1H-imidazole-2-carbohydrazide] | – | – | – | – | – | – | – | – | – | – | – | – | melting point: 234 to 237 °C

From article PMC11243693, “Synthesis and Biological Evaluation of New Compounds with Nitroimidazole Moiety” (Molecules, 2024)
